This is an account of results in patent US12116358B2, “Substituted indoles and methods of use thereof” (EPIZYME, INC., priority 2018, dated 2024).

For the first test, the system named is H3K36me3 in A549 cells. Kind of test: In-Cell Western (ICW) assay of SETD2 inhibitors (A549 assay). Type of test: cell-based, human. As to conditions: A549 cells; read-out: SETD2 A549. An outline of the steps: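 H3K36me3 In-Cell Western: cells exposed to compound for 3 days at 4,000 cells/well, 37° C. DRAQ5 (1:1000) marked cell number, with 700/800-channel Licor read-out.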
Consider `Cc1ccc(F)c2cc(C(=O)N[C@@H]3CCC[C@H](N4CCN(C(=O)N5CCOCC5)CC4)C3)[nH]c12` [compound 828], for which the IC50 worked out at 40 nM.

For `Cc1cccc2cc(C(=O)Nc3ccc4cncnc4c3)[nH]c12` [compound 466], the IC50 stood at 7000 nM.

Still in this test, the particulars now being: Homo sapiens; A549 cells; read-out: SETD2 A549.
As for `Cc1ccc(F)c2cc(C(=O)N[C@@H]3CCC[C@H](N4CCn5c(cnc5C(F)(F)F)C4)C3)[nH]c12` [compound 993], the IC50 worked out at 200 nM.

As to `Cc1ccc(C(=O)N2CCNCC2)cc1C(NC(=O)c1cc2cccc(C)c2[nH]1)C1CC1` (stereo not shown) [compound 583], the IC50 is above 25000 nM.

Take `Cc1cc(C(=O)NC2CCN(C)CC2)cnc1C(NC(=O)c1cc2cccc(C)c2[nH]1)C1CC1` (stereo not shown) [compound 470]: the IC50 worked out at 8000 nM.

With `Cc1ccc(F)c2cc(C(=O)Nc3cccc(N4CCOC5(CC5)C4)c3)[nH]c12` [compound 287], the IC50 is 1000 nM.

`Cc1ccc(F)c2cc(C(=O)Nc3cccc(C4CNC(=O)C4)c3)[nH]c12` (stereo not shown) [compound 177]: the IC50 turned out to be 400 nM.

In the case of `CCC(=O)N1CCN([C@H]2CCC[C@@H](NC(=O)c3cc4c(F)ccc(C)c4[nH]3)C2)CC1C(F)(F)F` (stereo partly shown) [compound 1113], the IC50 came to 10 nM.

For `Cc1ccc(F)c2cc(C(=O)Nc3cccc(N4CCOCC4CO)c3)[nH]c12` (stereo not shown) [compound 265], the IC50 is 700 nM.

Take `Cc1ccc(F)c2cc(C(=O)Nc3cccc(N4CCC(N(C)CCF)C4)c3)[nH]c12` (stereo not shown) [compound 130]: the IC50 was 300 nM.

In the case of `Cc1ccc(F)c2cc(C(=O)Nc3cccc4c(N5CCC(N(C)C)CC5)[nH]nc34)[nH]c12` [compound 415], the IC50 was found to be 3200 nM.

`Cc1ccc(F)c2cc(C(=O)Nc3cccc([C@H]4CC[C@@H](N(C)C)C4)c3)[nH]c12` [compound 324]: the IC50 is 1500 nM.

Take `CCN(CC)CCCC(NC(=O)c1cc2cccc(C)c2[nH]1)c1ncccc1C` (stereo not shown) [compound 582]: the IC50 was above 25000 nM.

With `Cc1ccc(F)c2cc(C(=O)Nc3cccc(-c4ncon4)c3)[nH]c12` [compound 249], the IC50 turned out to be 600 nM.

As to `Cc1ccc(F)c2cc(C(=O)Nc3cccc(N4CCN(C(=O)C5CCCN(C)C5)CC4)c3)[nH]c12` (stereo not shown) [compound 138], the IC50 was determined as 300 nM.

In the case of `Cc1ccc(F)c2cc(C(=O)Nc3cccc([C@@H]4CC[C@H](N(C)C)C4)c3)[nH]c12` [compound 302], the IC50 stood at 1200 nM.

Regarding `Cc1ccc(N2CCN(C)CC2)cc1NC(=O)c1cc2cccc(C)c2[nH]1` [compound 469], the IC50 is 7900 nM.

Regarding `Cc1ccc(F)c2cc(C(=O)N[C@@H]3CCC[C@@H](c4ccncn4)C3)[nH]c12` [compound 1064], the IC50 is above 2000 nM.

Consider `Cc1cccnc1C(NC(=O)c1cc2ncccn2n1)C1CC1` (stereo not shown) [compound 604], for which the IC50 is above 25000 nM.

With `CCOC(=O)N1CCC(N2CCC[C@H](NC(=O)c3cc4c(F)ccc(C)c4[nH]3)C2)CC1` [compound 876], the IC50 was above 2000 nM.

For `Cc1ccc(F)c2cc(C(=O)Nc3cccc(N4CCC(C)(O)CC4)c3)[nH]c12` [compound 87], the IC50 is 200 nM.

In the case of `CC(=O)N1[C@@H](C)CN(c2cccc(NC(=O)c3cc4c(F)ccc(C)c4[nH]3)c2)C[C@@H]1C` [compound 298], the IC50 turned out to be 1100 nM.

With `Cc1cccnc1C1(NC(=O)c2cc3cccc(C)c3[nH]2)CNC1` [compound 591], the IC50 is above 25000 nM.

Take `Cc1ccc(CN2CCOCC2)cc1NC(=O)c1cc2cccc(C)c2[nH]1` [compound 442]: the IC50 was determined as 5100 nM.

Take `CCOC(=O)N1CCC(N2CCC[C@@H](NC(=O)c3cc4c(F)ccc(C)c4[nH]3)C2)CC1` [compound 875]: the IC50 was above 2000 nM.

As to `Cc1ccc(F)c2cc(C(=O)Nc3cccc(N4CCCCC4)c3)[nH]c12` [compound 297], the IC50 came to 1100 nM.

The target of the next test is T1, SETD2(1434-1711) (Homo sapiens, UniProt Q9BYW2).
T1 construct: SETD2 (1434-1711) Assay; catalogue N/A
T1 sequence (Q9BYW2 1434-1711): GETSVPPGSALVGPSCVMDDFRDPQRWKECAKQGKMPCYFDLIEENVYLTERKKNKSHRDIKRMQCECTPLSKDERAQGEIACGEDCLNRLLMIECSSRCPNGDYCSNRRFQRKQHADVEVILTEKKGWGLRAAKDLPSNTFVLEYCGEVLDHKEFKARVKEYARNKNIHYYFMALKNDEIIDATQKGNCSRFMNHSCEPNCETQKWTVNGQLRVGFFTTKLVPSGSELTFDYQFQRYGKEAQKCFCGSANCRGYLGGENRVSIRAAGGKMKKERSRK
Kind of test: SETD2 (1434-1711) assay. Type of test: biochemical. As to conditions: read-out: SETD2 (1434-1711).
With `Cc1ccc(F)c2cc(C(=O)N[C@@H]3CCC[C@H](N4CCn5c(cnc5C(F)(F)F)C4)C3)[nH]c12` [compound 993], the IC50 was 40 nM.

Take `Cc1ccc(C(=O)N2CCNCC2)cc1C(NC(=O)c1cc2cccc(C)c2[nH]1)C1CC1` (stereo not shown) [compound 583]: the IC50 is 32400 nM.

Turning to `Cc1cc(C(=O)NC2CCN(C)CC2)cnc1C(NC(=O)c1cc2cccc(C)c2[nH]1)C1CC1` (stereo not shown) [compound 470], the IC50 was found to be 600 nM.

Turning to `Cc1ccc(F)c2cc(C(=O)Nc3cccc(N4CCOC5(CC5)C4)c3)[nH]c12` [compound 287], the IC50 was determined as 200 nM.

As to `Cc1ccc(F)c2cc(C(=O)Nc3cccc(C4CNC(=O)C4)c3)[nH]c12` (stereo not shown) [compound 177], the IC50 turned out to be 100 nM.

As for `CCC(=O)N1CCN([C@H]2CCC[C@@H](NC(=O)c3cc4c(F)ccc(C)c4[nH]3)C2)CC1C(F)(F)F` (stereo partly shown) [compound 1113], the IC50 was 10 nM.

Regarding `Cc1ccc(F)c2cc(C(=O)Nc3cccc(N4CCOCC4CO)c3)[nH]c12` (stereo not shown) [compound 265], the IC50 came out at 200 nM.

For `Cc1ccc(F)c2cc(C(=O)Nc3cccc(N4CCC(N(C)CCF)C4)c3)[nH]c12` (stereo not shown) [compound 130], the IC50 worked out at 40 nM.

Consider `Cc1ccc(F)c2cc(C(=O)Nc3cccc4c(N5CCC(N(C)C)CC5)[nH]nc34)[nH]c12` [compound 415], for which the IC50 was found to be 100 nM.

`Cc1ccc(F)c2cc(C(=O)Nc3cccc([C@H]4CC[C@@H](N(C)C)C4)c3)[nH]c12` [compound 324]: the IC50 worked out at 50 nM.

Consider `CCN(CC)CCCC(NC(=O)c1cc2cccc(C)c2[nH]1)c1ncccc1C` (stereo not shown) [compound 582], for which the IC50 stood at 31200 nM.

`Cc1ccc(F)c2cc(C(=O)Nc3cccc(-c4ncon4)c3)[nH]c12` [compound 249]: the IC50 came to 200 nM.

Regarding `Cc1ccc(F)c2cc(C(=O)Nc3cccc(N4CCN(C(=O)C5CCCN(C)C5)CC4)c3)[nH]c12` (stereo not shown) [compound 138], the IC50 was determined as 10 nM.

`Cc1ccc(F)c2cc(C(=O)Nc3cccc([C@@H]4CC[C@H](N(C)C)C4)c3)[nH]c12` [compound 302]: the IC50 came out at 30 nM.

As to `Cc1ccc(N2CCN(C)CC2)cc1NC(=O)c1cc2cccc(C)c2[nH]1` [compound 469], the IC50 stood at 1400 nM.

On to `Cc1ccc(F)c2cc(C(=O)N[C@@H]3CCC[C@@H](c4ccncn4)C3)[nH]c12` [compound 1064], for which the IC50 came to 2300 nM.

Take `Cc1cccnc1C(NC(=O)c1cc2ncccn2n1)C1CC1` (stereo not shown) [compound 604]: the IC50 is above 50000 nM.

For the compound `CCOC(=O)N1CCC(N2CCC[C@H](NC(=O)c3cc4c(F)ccc(C)c4[nH]3)C2)CC1` [compound 876], the IC50 was above 10000 nM.

With `Cc1ccc(F)c2cc(C(=O)Nc3cccc(N4CCC(C)(O)CC4)c3)[nH]c12` [compound 87], the IC50 was 100 nM.

With `CC(=O)N1[C@@H](C)CN(c2cccc(NC(=O)c3cc4c(F)ccc(C)c4[nH]3)c2)C[C@@H]1C` [compound 298], the IC50 stood at 300 nM.

`Cc1cccnc1C1(NC(=O)c2cc3cccc(C)c3[nH]2)CNC1` [compound 591]: the IC50 is above 50000 nM.

On to `Cc1ccc(CN2CCOCC2)cc1NC(=O)c1cc2cccc(C)c2[nH]1` [compound 442], for which the IC50 came out at 2100 nM.

Regarding `Cc1ccc(F)c2cc(C(=O)N[C@@H]3CCC[C@H](N4CCN(C(=O)N5CCOCC5)CC4)C3)[nH]c12` [compound 828], the IC50 was determined as 20 nM.

On to `CCOC(=O)N1CCC(N2CCC[C@@H](NC(=O)c3cc4c(F)ccc(C)c4[nH]3)C2)CC1` [compound 875], for which the IC50 is 700 nM.

With `Cc1ccc(F)c2cc(C(=O)Nc3cccc(N4CCCCC4)c3)[nH]c12` [compound 297], the IC50 was 100 nM.

On to `Cc1cccc2cc(C(=O)Nc3ccc4cncnc4c3)[nH]c12` [compound 466], for which the IC50 came out at 1900 nM.
